Several values for one entry are separate records, joined by “and”; a condition that tells them apart may be missing. Equal entries are not always repeated.
What follows are compounds tested against TBK1 (Homo sapiens (Human), UniProt Q9UHD2) (assay: TBK1 low ATP kinase assay (in vitro assay 1)). Conditions: TBK1 low ATP kinase assay IC50, in vitro assay 1.
Format: biochemical

Chain of TBK1 (Q9UHD2 whole entry): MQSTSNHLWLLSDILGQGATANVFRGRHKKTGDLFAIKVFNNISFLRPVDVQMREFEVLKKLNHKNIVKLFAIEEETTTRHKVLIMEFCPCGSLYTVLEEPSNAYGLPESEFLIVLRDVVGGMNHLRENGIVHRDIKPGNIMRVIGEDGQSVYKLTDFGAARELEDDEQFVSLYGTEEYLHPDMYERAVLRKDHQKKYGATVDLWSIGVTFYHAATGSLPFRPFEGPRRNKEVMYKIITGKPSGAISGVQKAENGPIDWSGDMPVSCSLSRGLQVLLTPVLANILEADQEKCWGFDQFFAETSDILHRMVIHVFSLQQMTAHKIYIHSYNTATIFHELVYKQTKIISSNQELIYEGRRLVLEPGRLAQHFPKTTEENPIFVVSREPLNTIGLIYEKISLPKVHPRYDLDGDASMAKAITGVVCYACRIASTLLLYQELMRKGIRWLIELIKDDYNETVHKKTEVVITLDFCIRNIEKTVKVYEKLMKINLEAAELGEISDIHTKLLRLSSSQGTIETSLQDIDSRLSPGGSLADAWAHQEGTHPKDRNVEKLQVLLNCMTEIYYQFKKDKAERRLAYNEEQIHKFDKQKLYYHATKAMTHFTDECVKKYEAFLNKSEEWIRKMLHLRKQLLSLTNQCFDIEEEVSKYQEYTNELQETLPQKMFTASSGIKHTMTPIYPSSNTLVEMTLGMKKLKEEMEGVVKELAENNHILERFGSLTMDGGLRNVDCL

SMILES | IC50
Cc1cc(-c2ccc3nc(Nc4cc(C(C)N5CCN(C(=O)CC(F)(F)F)CC5)ccn4)[nH]c3c2)ncn1 (racemic) [Example 30.02.01, (rac)-3,3,3-trifluoro-1-{4-[1-(2-{[6-(6-methylpyrimidin-4-yl)-1H-benzimidazol-2-yl]amino}pyridin-4-yl)ethyl]piperazin-1-yl}propan-1-one] | 4.46 nM

Same assay, conditions: in vitro assay 1, read-out: TBK1 low ATP kinase assay IC50

SMILES | IC50
O=C(CC(F)(F)F)N1CCN(Cc2ccnc(Nc3nc4ccc(-c5ccn(CC6CC6)c(=O)c5)cc4[nH]3)c2)CC1 [Example 44.01, 1-(cyclopropylmethyl)-4-{2-[(4-{[4-(3,3,3-trifluoropropanoyl)piperazin-1-yl]methyl}pyridin-2-yl)amino]-1H-benzimidazol-6-yl}pyridin-2(1H)-one] | 94 nM
Cc1cccc(-c2ccc3nc(Nc4cc(CN5CCN(C(=O)OC(C)(C)C)CC5)ccn4)[nH]c3c2)n1 [Example 12.01, tert-butyl 4-[(2-{[6-(6-methylpyridin-2-yl)-1H-benzimidazol-2-yl]amino}pyridin-4-yl)methyl]piperazine-1-carboxylate] | > 20000 nM and 10000 nM and 8120 nM
COc1cc(-c2ccc3nc(Nc4cc(CN5CCN(C(=O)C6CC6)CC5)ccn4)[nH]c3c2OCC(C)C)ccn1 [Example 49.01, cyclopropyl{4-[(2-{[6-(2-methoxypyridin-4-yl)-7-(2-methylpropoxy)-1H-benzimidazol-2-yl]amino}pyridin-4-yl)methyl]piperazin-1-yl}methanone] | 217 nM
COc1cncnc1-c1ccc2nc(Nc3cc(CN4CCN(S(=O)(=O)C5CCCCC5)CC4)ccn3)[nH]c2c1 [Example 35.01.13, N-(4-{[4-(cyclohexylsulfonyl)piperazin-1-yl]methyl}pyridin-2-yl)-6-(5-methoxypyrimidin-4-yl)-1H-benzimidazol-2-amine] | 60.9 nM
COc1cncnc1-c1ccc2nc(Nc3cc(CN4CCN(S(=O)(=O)CCC(F)(F)F)CC4)ccn3)[nH]c2c1 [Example 35.01.09, 6-(5-methoxypyrimidin-4-yl)-N-[4-({4-[(3,3,3-trifluoropropyl)sulfonyl]piperazin-1-yl}methyl)pyridin-2-yl]-1H-benzimidazol-2-amine] | 40.6 nM
Cc1noc(-c2ccc3nc(Nc4cc(CN5CCN(C(=O)C(C)(C)C)CC5)ccn4)[nH]c3c2)n1 [Example 16.01.06, 2,2-dimethyl-1-{4-[(2-{[6-(3-methyl-1,2,4-oxadiazol-5-yl)-1H-benzimidazol-2-yl]amino}pyridin-4-yl)methyl]piperazin-1-yl}propan-1-one] | 208 nM
Cc1ncc(C)c(-c2ccc3nc(Nc4cc(CN5CCN(C(=O)OC(C)(C)C)CC5)ccn4)[nH]c3c2)n1 [Example 33.01, tert-butyl 4-[(2-{[6-(2,5-dimethylpyrimidin-4-yl)-1H-benzimidazol-2-yl]amino}pyridin-4-yl)methyl]piperazine-1-carboxylate] | 3540 nM
Cc1cc(-c2ccc3nc(Nc4cc(CN5CCN(C(=O)C6CC6)CC5)ccn4)[nH]c3c2)nc(C)n1 [Example 31.02, cyclopropyl{4-[(2-{[6-(2,6-dimethylpyrimidin-4-yl)-1H-benzimidazol-2-yl]amino}pyridin-4-yl)methyl]piperazin-1-yl}methanone] | 77 nM
Cc1noc(-c2ccc3nc(Nc4cc(CN5CCN(C(=O)c6ccco6)CC5)ccn4)[nH]c3c2)n1 [Example 101.14, furan-2-yl{4-[(2-{[6-(3-methyl-1,2,4-oxadiazol-5-yl)-1H-benzimidazol-2-yl]amino}pyridin-4-yl)methyl]piperazin-1-yl}methanone] | 430 nM
CC(c1ccnc(Nc2nc3ccc(-c4cc(C(F)(F)F)ncn4)c(F)c3[nH]2)c1)N1CCN(C(=O)C2(C(F)(F)F)CC2)CC1 (single isomer, unassigned) [Example 173.04, (4-{(1R or 1S)-1-[2-({7-fluoro-6-[6-(trifluoromethyl)pyrimidin-4-yl]-1H-benzimidazol-2-yl}amino)pyridin-4-yl]ethyl}piperazin-1-yl)[1-(trifluoromethyl)cyclopropyl]methanone] | 149 nM

The remaining lines, values ahead:

IC50 | SMILES
32 nM | Cc1cc(-c2ccc3nc(Nc4cc(CN5CCN(C(=O)C6CC6)CC5)ccn4)[nH]c3c2)c(F)cn1 [Example 131.03, cyclopropyl{4-[(2-{[6-(5-fluoro-2-methylpyridin-4-yl)-1H-benzimidazol-2-yl]amino}pyridin-4-yl)methyl]piperazin-1-yl}methanone]
28.5 nM | COc1cnccc1-c1ccc2nc(Nc3cc(CN4CCN(C(=O)C(C)(C)O)CC4)ccn3)[nH]c2c1 [Example 04.09, 2-hydroxy-1-{4-[(2-{[6-(3-methoxypyridin-4-yl)-1H-benzimidazol-2-yl]amino}pyridin-4-yl)methyl]piperazin-1-yl}-2-methylpropan-1-one]
17.8 nM | CC(C)Nc1ncnc(-c2ccc3nc(Nc4cc(CN5CCN(C(=O)C6CC6)CC5)ccn4)[nH]c3c2)c1F [Example 193.03, cyclopropyl(4-{[2-({6-[5-fluoro-6-(propan-2-ylamino)pyrimidin-4-yl]-1H-benzimidazol-2-yl}amino)pyridin-4-yl]methyl}piperazin-1-yl)methanone]
16.9 nM | Cc1cc(-c2ccc3nc(Nc4cc(CN5CCN(C(=O)CC6CC6)CC5)ccn4)[nH]c3c2)ncn1 [Example 30.01.03, 2-cyclopropyl-1-{4-[(2-{[6-(6-methylpyrimidin-4-yl)-1H-benzimidazol-2-yl]amino}pyridin-4-yl)methyl]piperazin-1-yl}ethanone]
14 nM | Cc1cc(-c2ccc3nc(Nc4cc(C(C)N5CCN(C(=O)C6CC6)CC5)ccn4)[nH]c3c2)ncn1 (single isomer, unassigned) [Example 30.03.03.B, cyclopropyl{4-[(1S or 1R)-1-(2-{[6-(6-methylpyrimidin-4-yl)-1H-benzimidazol-2-yl]amino}pyridin-4-yl)ethyl]piperazin-1-yl}methanone]
14 nM | CN(CC(F)(F)F)c1cc(-c2ccc3nc(Nc4cc(CN5CCN(C(=O)OC(C)(C)C)CC5)ccn4)[nH]c3c2)ncn1 [Example 146.01, tert-butyl 4-({2-[(6-{6-[methyl(2,2,2-trifluoroethyl)amino]pyrimidin-4-yl}-1H-benzimidazol-2-yl)amino]pyridin-4-yl}methyl)piperazine-1-carboxylate]
12.4 nM | CC(c1ccnc(Nc2nc3ccc(-c4ccncn4)cc3[nH]2)c1)N1CCN(C(=O)C2CC2)CC1 (single isomer, unassigned) [Example 23.05.01.B, cyclopropyl{4-[(1S or 1R)-1-(2-{[6-(pyrimidin-4-yl)-1H-benzimidazol-2-yl]amino}pyridin-4-yl)ethyl]piperazin-1-yl}methanone]
11 nM | CC(c1ccnc(Nc2nc3ccc(-c4cnn(CC5CC5)c4)c(F)c3[nH]2)c1)N1CCN(C(=O)OC(C)(C)C)CC1 (single isomer, unassigned) [Example 121.01, tert-butyl 4-{(1R or 1S)-1-[2-({6-[1-(cyclopropylmethyl)-1H-pyrazol-4-yl]-7-fluoro-1H-benzimidazol-2-yl}amino)pyridin-4-yl]ethyl}piperazine-1-carboxylate]
9.35 nM | Cc1cc(-c2ccc3nc(Nc4cc(C(C)N5CCN(C(=O)CC6CC6)CC5)ccn4)[nH]c3c2)ncn1 (racemic) [Example 30.02.04, (rac)-2-cyclopropyl-1-{4-[1-(2-{[6-(6-methylpyrimidin-4-yl)-1H-benzimidazol-2-yl]amino}pyridin-4-yl)ethyl]piperazin-1-yl}ethanone]
9.3 nM | CN(c1cc(-c2ccc3nc(Nc4cc(CN5CCN(C(=O)CC(F)(F)F)CC5)ccn4)[nH]c3c2)ncn1)C1CCC1 [Example 156.02, 1-[4-({2-[(6-{6-[cyclobutyl(methyl)amino]pyrimidin-4-yl}-1H-benzimidazol-2-yl)amino]pyridin-4-yl}methyl)piperazin-1-yl]-3,3,3-trifluoropropan-1-one]
8 nM | COc1c(NCC2CC2)ncnc1-c1ccc2nc(Nc3cc(C(C)N4CCN(C(=O)OC(C)(C)C)CC4)ccn3)[nH]c2c1 (single isomer, unassigned) [Example 109.02.01, tert-butyl 4-[(1R or 1S)-1-{2-[(6-{6-[(cyclopropylmethyl)amino]-5-methoxypyrimidin-4-yl}-1H-benzimidazol-2-yl)amino]pyridin-4-yl}ethyl]piperazine-1-carboxylate]
6.67 nM | Cc1nccc(-c2ccc3nc(Nc4cc(C(C)N5CCN(C(=O)C6CC6)CC5)ccn4)[nH]c3c2)n1 (single isomer, unassigned) [Example 24.05.04.A, cyclopropyl{4-[(1R or 1S)-1-(2-{[6-(2-methylpyrimidin-4-yl)-1H-benzimidazol-2-yl]amino}pyridin-4-yl)ethyl]piperazin-1-yl}methanone]
6.6 nM | CSc1cc(-c2ccc3nc(Nc4cc(CN5CCN(C(=O)CC(F)(F)F)CC5)ccn4)[nH]c3c2)ncn1 [Example 95.01, 3,3,3-trifluoro-1-(4-{[2-({6-[6-(methylsulfanyl)pyrimidin-4-yl]-1H-benzimidazol-2-yl}amino)pyridin-4-yl]methyl}piperazin-1-yl)propan-1-one]
5.62 nM | COc1cncnc1-c1ccc2nc(Nc3cc(C(C)N4CCN(C(=O)C5CC5)CC4)ccn3)[nH]c2c1 (single isomer, unassigned) [Example 35.03.03.A, cyclopropyl{4-[(1R or 1S)-1-(2-{[6-(5-methoxypyrimidin-4-yl)-1H-benzimidazol-2-yl]amino}pyridin-4-yl)ethyl]piperazin-1-yl}methanone]
4.2 nM | CC(C)Nc1cc(-c2ccc3nc(Nc4cc(CN5CCN(C(=O)OC(C)(C)C)CC5)ccn4)[nH]c3c2)ncn1 [Example 154.01, tert-butyl 4-{[2-({6-[6-(propan-2-ylamino)pyrimidin-4-yl]-1H-benzimidazol-2-yl}amino)pyridin-4-yl]methyl}piperazine-1-carboxylate]
0.473 nM | CC(c1ccnc(Nc2nc3ccc(-c4cc(N5CCCC5)ncn4)cc3[nH]2)c1)N1CCN(C(=O)C2CC2(F)F)CC1 (single isomer, unassigned) [Example 117.05, ((1RS)-2,2-difluorocyclopropyl)(4-{(1R or 1S)-1-[2-({6-[6-(pyrrolidin-1-yl)pyrimidin-4-yl]-1H-benzimidazol-2-yl}amino)pyridin-4-yl]ethyl}piperazin-1-yl)methanone]

Reference: patent US10894784B2, “Heteroarylbenzimidazole compounds” (BAYER PHARMA AKTIENGESELLSCHAFT, priority 2015, dated 2021)
